Data: US5554542A, “Immunoassay for isothiazolones” (Rohm and Haas Company, priority 1993, dated 1996)

Tested on: antibodies in mouse serum
Experiment: Competitive inhibition ELISA (CIEIA) screening of mouse sera for isothiazolone antibodies
Assay type: binding, BALB/c mice
Conditions: for % Inhibition: inhibitor final 1 ppm, b98 says 10^-4 M; for Reactivity of serum antibodies toward inhibitor: serum of mouse 1E, immunized with 573-THY
Protocol: Blood samples were taken from the mice immunized in the above example. The sera were separated from the red blood cells by centrifugation. The sera were then screened for activity using competitive inhibition ELISA (CIEIA). Ninety-six well polystyrene EIA ([…]) plates were coated with 100 μl of 651 conjugated to BSA (651-BSA), 651 conjugated to THY (651-THY), 573 conjugated to BSA (573-BSA), or 573 conjugated to THY (573-THY) for at least two hours at room temperature or 16 hours at 4° C. Unbound material was washed from the wells with five washes of PBS-T. The wells then received 50 μl of buffer alone (PBS-T) or inhibitors, either 651 or 573, each diluted to 2 ppm in buffer. The wells then received 50 μl of mouse serum, so that each serum was reacted with either buffer, 651 or 573 (inhibitors). […] The wells were incubated for 30-60 minutes at room temperature. They were then washed five times with PBS-T to remove unbound material and each well then received 100 μl of a 1 μg/ml solution of biotinylated horse anti-mouse IgG (Vector Laboratories, Burlingame, Calif.), and the assay continued as described for the ELISA, supra.
If the antibodies in a serum were reactive with one or both of the inhibitors in solution in the wells, the antibody molecules, or a percentage of the antibody molecules, would bind to the inhibitors, and would therefore form an antibody-inhibitor complex which would stay in solution and be removed from the plate during the washing step. In such a case, the binding of the antibody to the inhibitor would reduce the number of antibody molecules available to bind to the coating antigen, 651-BSA. Because fewer antibody molecules are attached to the 651-BSA, there is a reduction in the number of biotinylated horse anti-mouse IgG molecules bound, resulting in fewer molecules of avidin-peroxidase complex being bound, resulting in reduced hydrolysis of the substrate, leading ultimately to lower absorbances. In all cases, the inhibitor concentration was 10^-4 M.

[1] = mouse 1D serum, immunogen 573-BSA, coating conjugate 573-THY
[2] = mouse 1D serum, immunogen 573-BSA, coating conjugate 651-THY
[3] = mouse 1E serum, immunogen 573-THY, coating conjugate 573-BSA
[4] = mouse 1E serum, immunogen 573-THY, coating conjugate 651-BSA
[5] = mouse 2D serum, immunogen 573-BSA, coating conjugate 651-THY
[6] = mouse 2E serum, immunogen 573-THY, coating conjugate 573-BSA
[7] = mouse 2E serum, immunogen 573-THY, coating conjugate 651-BSA

Structure (SMILES) | % Inhibition [1] | % Inhibition [2] | % Inhibition [3] | % Inhibition [4] | % Inhibition [5] | % Inhibition [6] | % Inhibition [7] | Reactivity of serum antibodies toward inhibitor
Cn1sccc1=O [compound 573, 2-methyl-3-isothiazolone] | 12% | 0% | 21% | 28% | 0% | 10% | 12% | reactive
Cn1sc(Cl)cc1=O [compound 651, 5-chloro-2-methyl-3-isothiazolone] | 0% | 10% | 44% | 34% | 12% | 12% | 7% | reactive
